Data reported in patent publication US20240166598A1, “COMPOUNDS, COMPOSITIONS, AND METHODS OF USING THE SAME” (priority 2021, published 2024).
Like-named read-outs stand apart in the source and are kept apart here.

Tests used:
[1] = target: T1, SARS CoV-2 PLpro (Severe acute respiratory syndrome coronavirus 2 (2019-nCoV) (SARS-CoV-2), UniProt P0DTD1); assay: biochemical; assay type: biochemical
[2] = target: T1, SARS CoV-2 PLpro; assay: cell-based; conditions: read-out: FlipGFP-PLpro assay EC50
[3] = target: T1, SARS CoV-2 PLpro; assay: biochemical; conditions: Table 8; read-out: FRET Enzymatic assay IC50
[4] = in vitro; conditions: human, Caco-2
[5] = target: T1, SARS CoV-2 PLpro; assay: biochemical; assay type: binding
[6] = human
[7] = in vitro; conditions: human, microsomes
[8] = Table 7, read-out: Enzymatic assay IC50
[9] = Table 7, read-out: SPR binding assay KD
[10] = read-out: SPR binding assays KD
[11] = read-out: Enzyme inhibition IC50

## Cc1ccc([N+](=O)[O-])cc1C(=O)NC(C)c1c[nH]c2ccccc12 (stereo not shown)
[1]; [8]
  IC50: > 100 µM

## Cc1ccc(NC2CNC2)cc1C(=O)N[C@H](C)c1cccc(-c2ccc(CN[C@H]3CC[C@@H](OC(=O)/C=C/c4cccnc4)C3)s2)c1
[1]; [8]
  IC50: 0.387 µM

## Cc1ccc(NC2CNC2)cc1C(=O)N[C@H](C)c1cccc(-c2ccc(CO)s2)c1
[1]; [8]
  IC50: 1.57 µM

## Cc1ccc(NC2CNC2)cc1C(=O)N[C@H](C)c1cccc(-c2ncc(CN3CCCC3)s2)c1
[1]; [8]
  IC50: 3.14 µM

## CCOC(=O)[C@@H]1CC[C@H](NCc2cnc(-c3cccc([C@@H](C)NC(=O)c4cc(NC5CNC5)ccc4C)c3)s2)C1
[1]; [8]
  IC50: 0.496 µM

## Cc1ccc(NC2CNC2)cc1C(=O)N[C@H](C)c1cccc(-c2ccc(CNC(=O)C(F)(F)C(F)(F)F)s2)c1
[1]; [8]
  IC50: 0.442 µM

## Cc1ccc(OC2CNC2)cc1C(=O)N[C@H](C)c1cccc(-c2ccc(CN[C@H]3CC[C@@H](C(=O)OC[C@H]4O[C@@H](n5ccc(NO)nc5=O)[C@H](O)[C@@H]4O)C3)s2)c1
[2]
  EC50: > 20 µM
[3]
  IC50: 0.75 ± 0.05 µM

## Cc1ccc(OC2CNC2)cc1C(=O)N[C@H](C)c1cccc(-c2ccc(CN[C@H]3CC[C@@H](C(=O)NCCOCCOCCOCCOCCNc4cccc5c4C(=O)N(C4CCC(=O)NC4=O)C5=O)C3)s2)c1 (stereo partly shown)
[2]
  EC50: > 20 µM
[3]
  IC50: 1.67 ± 0.33 µM

## Cc1ccc(OC2CNC2)cc1C(=O)N[C@H](C)c1cccc(-c2ccc(CN3CCCC3)o2)c1
[2]
  EC50: > 60 µM
[3]
  IC50: 4.58 ± 0.92 µM

## Cc1ccc(OC2CNC2)cc1C(=O)N[C@H](C)c1cccc(-c2ccc(CN[C@H]3CC[C@@H](O)C3)o2)c1
[2]
  EC50: > 60 µM
[3]
  IC50: 3.02 ± 0.58 µM

## Cc1ccc(N)cc1CNC(C)c1cccc2ccccc12 (stereo not shown) [DY2-64]
[1]
  PLpro inhibition potency, in words (SAR): sharp decline in potency

## Cc1ccc(N)cc1S(=O)(=O)NC(C)c1cccc2ccccc12 (stereo not shown) [DY3-63]
[1]
  PLpro inhibition potency, in words (SAR): sharp decline in potency

## C[C@H]1O[C@@H](O[C@H]2[C@@H](O)C[C@H](O[C@H]3[C@@H](O)C[C@H](O[C@H]4CC[C@@]5(C)[C@H](CC[C@@H]6[C@@H]5C[C@@H](O)[C@]5(C)[C@@H](C7=CC(=O)OC7)CC[C@]65O)C4)O[C@@H]3C)O[C@@H]2C)C[C@H](O)[C@@H]1O [Digoxin]
[4]
  Papp A→B: 0.4 ×10⁻⁶ cm/s
  Papp B→A: 10.4 ×10⁻⁶ cm/s

## Cc1ccc(NC2CN(C(=O)OC(C)(C)C)C2)cc1C(=O)N[C@H](C)c1cccc2ccccc12 [Example 1, Tert-butyl (R)-3-((4-methyl-3-((1-(naphthalen-1-yl)ethyl)carbamoyl)phenyl)amino)azetidine-1-carboxylate]
[5]; read-out: SPR binding assay KD
  Kd: 16 µM
[1]; read-out: Enzymatic assay IC50
  IC50: 6.1 µM

## Cc1ccc(NC2CCN(C(=O)OC(C)(C)C)CC2)cc1C(=O)N[C@H](C)c1cccc2ccccc12 [Example 2, Tert-butyl (R)-4-((4-methyl-3-((1-(naphthalen-1-yl)ethyl)carbamoyl)phenyl)amino)piperidine-1-carboxylate]
[5]; read-out: SPR binding assay KD
  Kd: 4.7 µM
[1]; read-out: Enzymatic assay IC50
  IC50: 1.1 µM

## Cc1ccc(NC(=O)C2CN(C(=O)OC(C)(C)C)C2)cc1C(=O)N[C@H](C)c1cccc2ccccc12 [Example 3, Tert-butyl (R)-3-((4-methyl-3-((1-(naphthalen-1-yl)ethyl)carbamoyl)phenyl)carbamoyl)azetidine-1-carboxylate]
[5]; read-out: SPR binding assay KD
  Kd: 32.6 µM
[1]; read-out: Enzymatic assay IC50
  IC50: 5.5 µM

## Cc1ccc(NC(=O)C2CCN(C(=O)OC(C)(C)C)CC2)cc1C(=O)N[C@H](C)c1cccc2ccccc12 [Example 4, Tert-butyl (R)-4-((4-methyl-3-((1-(naphthalen-1-yl)ethyl)carbamoyl)phenyl)carbamoyl)piperidine-1-carboxylate]
[5]; read-out: SPR binding assay KD
  Kd: 31.1 µM
[1]; read-out: Enzymatic assay IC50
  IC50: 6 µM

## Cc1ccc(NC2CNC2)cc1C(=O)N[C@H](C)c1cccc2ccccc12 [Example 5, (R)-5-(azetidin-3-ylamino)-2-methyl-N-(1-(naphthalen-1-yl)ethyl)benzamide]
[5]; [9]
  Kd: 0.81 µM

## Cc1ccc(N)cc1C(=O)NC(C)c1cccc2cc[nH]c12 (stereo not shown) [Example 18, N-(1-(1H-indol-7-yl)ethyl)-5-amino-2-methylbenzamide]
[5]; read-out: SPR binding assay KD
  Kd: 30.3 µM
[1]; read-out: Enzymatic assay IC50
  IC50: 4.7 µM

## Cc1ccc(N)cc1C(=O)NC(CO)c1cccc2ccccc12 (stereo not shown) [Example 26, 5-amino-N-(2-hydroxy-1-(naphthalen-1-yl)ethyl)-2-methylbenzamide]
[1]; [8]
  IC50: ~100 µM

## Cc1ccc(N)cc1C(=O)N[C@H](C)c1c(O)ccc2ccccc12 [Example 27, (R)-5-amino-N-(1-(2-hydroxynaphthalen-1-yl)ethyl)-2-methylbenzamide]
[5]; read-out: SPR binding assay KD
  Kd: 184 µM
[1]; [8]
  IC50: > 100 µM

## Cc1ccc(N(C)C2CNC2)cc1C(=O)N[C@H](C)c1c(OC2CNC2)ccc2ccccc12 [Example 30, (R)-5-(azetidin-3-yl(methyl)amino)-N-(1-(2-(azetidin-3-yloxy)naphthalen-1-yl)ethyl)-2-methylbenzamide]
[1]; [8]
  IC50: > 100 µM

## Cc1ccc(N)cc1C(=O)N[C@H](C)c1cccc2cccnc12 [Example 35, (R)-5-amino-2-methyl-N-(1-(quinolin-8-yl)ethyl)benzamide]
[5]; [9]
  Kd: > 1000 µM

## CN(C)CC[C@@H](NC(=O)c1cccc(N(C)C2CNC2)c1)c1cccc2ccccc12 [Example 41, (R)-3-(azetidin-3-yl(methyl)amino)-N-(3-(dimethylamino)-1-(naphthalen-1-yl)propyl)benzamide]
[1]; [8]
  IC50: > 100 µM

## Cc1ccc(N)cc1S(=O)(=O)N[C@H](C)c1cccc2ccccc12 [Example 48, (R)-5-amino-2-methyl-N-(1-(naphthalen-1-yl)ethyl)benzenesulfonamide]
[1]; [8]
  IC50: > 100 µM

## Cc1ccc(N(C)C2CNC2)cc1C(=O)N[C@H](C)c1cccc2c1ccn2CC1CCC1 [Example 50, (R)-5-(azetidin-3-yl(methyl)amino)-N-(1-(1-(cyclobutylmethyl)-1H-indol-4-yl)ethyl)-2-methylbenzamide]
[5]; read-out: SPR binding assay KD
  Kd: 14.1 µM
[1]; read-out: Enzymatic assay IC50
  IC50: 3.3 µM

## C[C@@H](NC(=O)c1cc(NC2CNC2)ccc1Cl)c1csc2ccccc12 [Example 54, (R)-5-(azetidin-3-ylamino)-N-(1-(benzo[b]thiophen-3-yl)ethyl)-2-chlorobenzamide]
[5]; read-out: SPR binding assay KD
  Kd: 33 µM
[1]; read-out: Enzymatic assay IC50
  IC50: 8.5 µM

## CC(C)NCC(O)COc1cccc2ccccc12 (stereo not shown) [Propranolol]
[4]
  Papp A→B: 17.9 ×10⁻⁶ cm/s
  Papp B→A: 18.3 ×10⁻⁶ cm/s
  efflux ratio: 1.02

## Cc1ccc(NC2CNC2)cc1C(=O)N[C@H](C)c1cccc(-c2ccc(CN3CC[C@H](O)C3)s2)c1 [XR8-57]
[6]
  In vitro CIint: 0.27 μL/min/mg protein
  Scale-up CIint: 0.34 mL/min/kg
[7]
  half-life: 85.4 h

## Cc1ccc(NC2CN(C(=O)OC(C)(C)C)C2)cc1C(=O)N[C@H](C)c1cccc2ccccc12 [ZN-2-180]
[5]; [10]
  Kd: 16 µM
[1]; [11]
  IC50: 6.08 µM

## Cc1ccc(NC2CCN(C(=O)OC(C)(C)C)CC2)cc1C(=O)N[C@H](C)c1cccc2ccccc12 [ZN-2-181]
[5]; [10]
  Kd: 4.7 µM
[1]; [11]
  IC50: 1.1 µM

## Cc1ccc(NC(=O)C2CCN(C(=O)OC(C)(C)C)CC2)cc1C(=O)N[C@H](C)c1cccc2ccccc12 [ZN-2-183]
[5]; [10]
  Kd: 31.1 µM
[1]; [11]
  IC50: 6 µM

## Cc1ccc(NC2CNC2)cc1C(=O)N[C@H](C)c1cccc2ccccc12 [ZN-2-184]
[5]; KD2
  Kd: 1.17 µM
[5]; KD3
  Kd: 1.06 µM
[5]; KD4
  Kd: 0.856 µM
[5]; SPR
  rate of association relative to GRL0617: twofold increase in rate of association
[5]; SPR association rate, average of replicates
  Ave ka: 340000 M⁻¹ s⁻¹
[5]; SPR association rate, replicate 1
  ka1: 426000 M⁻¹ s⁻¹
[5]; SPR association rate, replicate 2
  ka2: 348000 M⁻¹ s⁻¹
[5]; SPR association rate, replicate 3
  ka3: 231000 M⁻¹ s⁻¹
[5]; SPR association rate, replicate 4
  ka4: 356000 M⁻¹ s⁻¹
[5]; SPR dissociation rate, average of replicates
  Ave kd: 0.349 s⁻¹
[5]; SPR dissociation rate, replicate 1
  kd1: 0.438 s⁻¹
[5]; SPR dissociation rate, replicate 2
  kd2: 0.407 s⁻¹
[5]; SPR dissociation rate, replicate 3
  kd3: 0.246 s⁻¹
[5]; SPR dissociation rate, replicate 4
  kd4: 0.305 s⁻¹
[5]; [10]
  Kd: 1.03 µM
[1]; compared with GRL0617 / parent
  PLpro inhibition potency, in words (SAR): two-fold improvement relative to GRL0617
[1]; [11]
  IC50: 1.01 µM

## Cc1ccc(N)cc1C(=O)NC(CO)c1cccc2ccccc12 (stereo not shown) [ZN-3-13]
[5]; [10]
  Kd: 39.1 µM
[1]; Table 11, read-out: Enzyme inhibition IC50
  IC50: ~100 µM

## Cc1ccc(CNCC(=O)O)cc1C(=O)N[C@H](C)c1cccc2ccccc12 [ZN-3-56]
[1]; compared with GRL0617 / parent
  PLpro inhibition potency, in words (SAR): slight improvement of potency over GRL0617

## C=C(N[C@H](C)c1cccc2ccccc12)C(=O)c1cc(N(C)C2CNC2)ccc1Cl [ZN-3-70]
[5]; Table 10, read-out: SPR binding assays KD
  Kd: 41.9 µM
[1]; Table 10, read-out: Enzyme inhibition IC50
  IC50: 10.7 µM

## (R)-6-amino-3-methyl-N- (1-(naphthalen-1- yl)ethyl)picolinamide [Example 40]
[5]; read-out: SPR binding assay KD
  Kd: > 1000 µM
[1]; read-out: Enzymatic assay IC50
  IC50: 10 to 100 µM
